Assay results from patent publication US20140309244A1, “NOVEL MICROBIOCIDES” (SYNGENTA PARTICIPATIONS AG, priority 2010, published 2014).

Key:
[1] = test system: Puccinia recondita f. sp. tritici; experiment: Puccinia recondita f. sp. tritici / wheat / leaf disc preventative (brown rust); assay type: in vivo; settings: foliar, wheat cv Kanzler leaf segments, inoculated 1 day after application, assessed 7-9 days after application, read-out: control of Puccinia recondita f. sp. tritici (percent disease control compared to untreated)
Method: Puccinia recondita f. sp. tritici/Wheat/Leaf Disc Preventative (Brown Rust) Wheat leaf segments cultivated variety (cv) Kanzler were placed on agar in 24-well plates and sprayed with formulated test compound diluted in water at an application rate of 200 ppm. The leaf disks were inoculated with a spore suspension of the fungus 1 day after application. The inoculated leaf segments were incubated at 19° C. and 75% relative humidity under a light regime of 12/12 h (light/dark) in a climate cabinet and the activity of a compound was assessed as percent disease control compared to untreated when an appropriate level of disease damage appears in untreated check leaf segments (7-9 days after application). […].103

[2] = test system: Mycosphaerella graminicola (Septoria tritici); experiment: Mycosphaerella graminicola (Septoria tritici) / liquid culture (Septoria blotch); assay type: cell-based; settings: Zymoseptoria tritici, PDB potato dextrose broth, 96-well plate, 24° C., 4-5 days after application, read-out: control of Mycosphaerella graminicola (inhibition of growth, photometric)
[3] = test system: Blumeria graminis f. sp. tritici (Erysiphe graminis f. sp. tritici); experiment: Blumeria graminis f. sp. tritici (Erysiphe graminis f. sp. tritici) / wheat / leaf disc preventative (powdery mildew on wheat); assay type: in vivo; settings: foliar, wheat cv. Kanzler leaf segments, inoculated 1 day after application, assessed 6-8 days after application, read-out: control of Blumeria graminis (percent disease control compared to untreated)
[4] = test system: Monographella nivalis (Microdochium nivale); experiment: Monographella nivalis (Microdochium nivale) / liquid culture (foot rot cereals); assay type: cell-based; settings: PDB potato dextrose broth, 96-well plate, 24° C., 4-5 days after application, read-out: control of Monographella nivalis (inhibition of growth, photometric)
Summary of the method: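 Cryostored conidia in potato dextrose broth added to test compound in DMSO at 200 ppm. Incubated at 24° C; growth inhibition read photometrically 4-5 days after application.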

[5] = test system: Phaeosphaeria nodorum (Septoria nodorum); experiment: Phaeosphaeria nodorum (Septoria nodorum) / wheat / leaf disc preventative (glume blotch); assay type: in vivo; settings: Parastagonospora nodorum, foliar, wheat cv Kanzler leaf segments, inoculated 2 days after application, assessed 5-7 days after application, read-out: control of Phaeosphaeria nodorum (percent disease control compared to untreated)
Pyrenophora teres = Pyrenophora teres / barley / leaf disc preventative (net blotch); assay type: in vivo; settings: foliar, barley cv Hasso leaf segments, inoculated two days after application, assessed 5-7 days after application, read-out: control of Pyrenophora teres (disease control compared to untreated)
Gaeumannomyces graminis = Gaeumannomyces graminis / liquid culture (take-all of cereals); assay type: cell-based; settings: liquid culture of mycelial fragments, PDB potato dextrose broth, 96-well plate, 24° C., 4-5 days after application, read-out: control of Gaeumannomyces graminis (inhibition of growth, photometric)
[6] = test system: Magnaporthe grisea (Pyricularia oryzae); experiment: whole plant or invertebrate; assay type: in vivo; settings: foliar, read-out: control of Magnaporthe grisea (percent disease control compared to untreated)
[7] = test system: Glomerella lagenarium (Colletotrichum lagenarium); experiment: Glomerella lagenarium (Colletotrichum lagenarium) / liquid culture (anthracnose); assay type: cell-based; settings: Colletotrichum orbiculare, PDB potato dextrose broth, 96-well plate, 24° C., 3-4 days after application, read-out: control of Glomerella lagenarium (inhibition of growth, photometric)
[8] = test system: Puccinia recondita f. sp. tritici; experiment: Puccinia recondita f. sp. tritici / wheat / leaf disc curative (brown rust); assay type: in vivo; settings: foliar, wheat cv Kanzler leaf segments, applied 1 day after inoculation, assessed 6-8 days after application, read-out: control of Puccinia recondita f. sp. tritici (percent disease control compared to untreated)
Method: Puccinia recondita f. sp. tritici/Wheat/Leaf Disc Curative (Brown Rust): Wheat leaf segments cv Kanzler were placed on agar in 24-well plates. The leaf segments were inoculated with a spore suspension of the fungus. The plates were stored in darkness at 19° C. and 75% relative humidity. The formulated test compound diluted in water was applied at an application rate of 200 ppm 1 day after inoculation.

[9] = test system: Botryotinia fuckeliana (Botrytis cinerea); experiment: Botryotinia fuckeliana (Botrytis cinerea) / liquid culture (gray mould); assay type: cell-based; settings: Vogels broth, 96-well plate, 24° C., 3-4 days after application, read-out: control of Botryotinia fuckeliana (inhibition of growth, photometric)
[10] = test system: Thanatephorus cucumeris (Rhizoctonia solani); experiment: Thanatephorus cucumeris (Rhizoctonia solani) / liquid culture (foot rot, damping-off); assay type: cell-based; settings: liquid culture of mycelia fragments, PDB potato dextrose broth, 96-well plate, 24° C., 3-4 days after application, read-out: control of Thanatephorus cucumeris (inhibition of growth, photometric)
Method: Thanatephorus cucumeris (Rhizoctonia solani)/Liquid Culture (Foot Rot, Damping-Off): Mycelia fragments of a newly grown liquid culture of the fungus are directly mixed into nutrient broth (PDB potato dextrose broth). After placing a DMSO solution of the test compounds into a 96-well microtiter plate at an application rate of 200 ppm, the nutrient broth containing the fungal material was added. The test plates were incubated at 24° C. and the inhibition of growth was determined photometrically 3-4 days after application.

[11] = test system: Mycosphaerella arachidis (Cercospora arachidicola); experiment: Mycosphaerella arachidis (Cercospora arachidicola) / liquid culture (early leaf spot); assay type: cell-based; settings: PDB potato dextrose broth, 96-well plate, 24° C., 4-5 days after application, read-out: control of Mycosphaerella arachidis (inhibition of growth, photometric)

CO/N=C(\C)c1cccc(CCCO/N=C2\CCCc3cc4c(nc32)CCCC4)n1 [P.94]
≥ 80%: pest or weed control at 200 ppm [1] | inhibition at 200 ppm [2] | pest or weed control at 200 ppm [3] | inhibition at 200 ppm [4] | pest or weed control at 200 ppm [5] | pest or weed control at 200 ppm (Pyrenophora teres) | inhibition at 200 ppm (Gaeumannomyces graminis) | pest or weed control at 200 ppm [6] | inhibition at 200 ppm [7] | pest or weed control at 200 ppm [8] | inhibition at 200 ppm [9] | inhibition at 200 ppm [10] | inhibition at 200 ppm [11]

CO/N=C(\C)c1cccc(CCCO/N=C2\CCCc3cc4ccccc4nc32)n1 [P.100]
≥ 80%: pest or weed control at 200 ppm [1] | inhibition at 200 ppm [2] | pest or weed control at 200 ppm [3] | inhibition at 200 ppm [4] | pest or weed control at 200 ppm [5] | pest or weed control at 200 ppm (Pyrenophora teres) | inhibition at 200 ppm (Gaeumannomyces graminis) | pest or weed control at 200 ppm [6] | inhibition at 200 ppm [7] | pest or weed control at 200 ppm [8] | inhibition at 200 ppm [9] | inhibition at 200 ppm [10] | inhibition at 200 ppm [11]
